Data published in PubChem BioAssay AID1963844 (Molecular Pharmacology Branch, DTP, NCI, 2024).

System: 422866-222-R5-J1-PDC complex spheroid viability
Assay: Anticancer human tumor 422866-222-R5-J1-PDC patient-derived pancreatic adenocarcinoma cell line growth inhibition [POLQ]
Conditions: for IC50: curve of first compound; for viability, T/C: stronger effect = lower value
How it was run: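 Growth inhibition in 3D: complex spheroids (tumor PDC, HUVEC, MSC) treated with POLQ inhibitor combinations; where Cmax unknown, highest tested concentration 10 microM, except SN-38 at 1 microM.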

[1] = second compound 0.0316 µM, first compound 0.0316 µM
[2] = second compound 0.0316 µM, first compound 0.1 µM
[3] = second compound 0.0316 µM, first compound 0.316 µM
[4] = second compound 0.0316 µM, first compound 1 µM
[5] = second compound 0.0316 µM, first compound 3.16 µM
[6] = second compound 0.0316 µM, first compound 10 µM
[7] = second compound 0.1 µM, first compound 0.0316 µM
[8] = second compound 0.1 µM, first compound 0.1 µM
[9] = second compound 0.1 µM, first compound 0.316 µM
[10] = second compound 0.1 µM, first compound 1 µM
[11] = second compound 0.1 µM, first compound 3.16 µM
[12] = second compound 0.1 µM, first compound 10 µM
[13] = second compound 0.316 µM, first compound 0.0316 µM
[14] = second compound 0.316 µM, first compound 0.1 µM
[15] = second compound 0.316 µM, first compound 0.316 µM
[16] = second compound 0.316 µM, first compound 1 µM
[17] = second compound 0.316 µM, first compound 3.16 µM
[18] = second compound 0.316 µM, first compound 10 µM
[19] = second compound 1 µM, first compound 0.0316 µM
[20] = second compound 1 µM, first compound 0.1 µM
[21] = second compound 1 µM, first compound 0.316 µM
[22] = second compound 1 µM, first compound 1 µM
[23] = second compound 1 µM, first compound 3.16 µM
[24] = second compound 1 µM, first compound 10 µM
[25] = second compound 3.16 µM, first compound 0.0316 µM
[26] = second compound 3.16 µM, first compound 0.1 µM
[27] = second compound 3.16 µM, first compound 0.316 µM
[28] = second compound 3.16 µM, first compound 1 µM
[29] = second compound 3.16 µM, first compound 3.16 µM
[30] = second compound 3.16 µM, first compound 10 µM
[31] = second compound 10 µM, first compound 0.0316 µM
[32] = second compound 10 µM, first compound 0.1 µM
[33] = second compound 10 µM, first compound 0.316 µM
[34] = second compound 10 µM, first compound 1 µM
[35] = second compound 10 µM, first compound 3.16 µM
[36] = second compound 10 µM, first compound 10 µM
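Further: spheroids exposed to compounds for one week before readout.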
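Wherever viability, T/C is given: percent of DMSO vehicle wells luminescence so 100% = untreated viability.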

CNCc1ccc(-c2[nH]c3cc(F)cc4c3c2CCNC4=O)cc1 + COC1C(OC(N)=O)C(O)C(Oc2ccc3c(O)c(NC(=O)c4ccc(O)c(CC=C(C)C)c4)c(=O)oc3c2C)OC1(C)C
IC50 (second compound 0.0316 µM): > 10 µM
IC50 (second compound 0.1 µM): > 10 µM
IC50 (second compound 0.316 µM): > 10 µM
IC50 (second compound 1 µM): > 10 µM
IC50 (second compound 3.16 µM): > 10 µM
IC50 (second compound 10 µM): > 10 µM
viability, T/C [1]: 96.6%
viability, T/C [2]: 97.2%
viability, T/C [3]: 75.3%
viability, T/C [4]: 97.3%
viability, T/C [5]: 83.4%
viability, T/C [6]: 105%
viability, T/C [7]: 124%
viability, T/C [8]: 109%
viability, T/C [9]: 104%
viability, T/C [10]: 99.1%
viability, T/C [11]: 76.7%
viability, T/C [12]: 95%
viability, T/C [13]: 99.5%
viability, T/C [14]: 101%
viability, T/C [15]: 98.2%
viability, T/C [16]: 83%
viability, T/C [17]: 92%
viability, T/C [18]: 95.1%
viability, T/C [19]: 116%
viability, T/C [20]: 104%
viability, T/C [21]: 101%
viability, T/C [22]: 92.9%
viability, T/C [23]: 96.8%
viability, T/C [24]: 99%
viability, T/C [25]: 93%
viability, T/C [26]: 101%
viability, T/C [27]: 92.9%
viability, T/C [28]: 71.7%
viability, T/C [29]: 83.5%
viability, T/C [30]: 99%
viability, T/C [31]: 96.8%
viability, T/C [32]: 102%
viability, T/C [33]: 100%
viability, T/C [34]: 90%
viability, T/C [35]: 103%
viability, T/C [36]: 90.2%

O=C(c1cc(Cc2n[nH]c(=O)c3ccccc23)ccc1F)N1CCN(C(=O)C2CC2)CC1 + COC1C(OC(N)=O)C(O)C(Oc2ccc3c(O)c(NC(=O)c4ccc(O)c(CC=C(C)C)c4)c(=O)oc3c2C)OC1(C)C
IC50 (second compound 0.0316 µM): < 0.0316 µM
IC50 (second compound 0.1 µM): < 0.0316 µM
IC50 (second compound 0.316 µM): < 0.0316 µM
IC50 (second compound 1 µM): < 0.0316 µM
IC50 (second compound 3.16 µM): < 0.0316 µM
IC50 (second compound 10 µM): < 0.0316 µM
viability, T/C [1]: 40.5%
viability, T/C [2]: 40.1%
viability, T/C [3]: 42.3%
viability, T/C [4]: 38.2%
viability, T/C [5]: 34%
viability, T/C [6]: 27.5%
viability, T/C [7]: 40.1%
viability, T/C [8]: 42.5%
viability, T/C [9]: 41.2%
viability, T/C [10]: 35.4%
viability, T/C [11]: 36.4%
viability, T/C [12]: 26.3%
viability, T/C [13]: 43.5%
viability, T/C [14]: 35.9%
viability, T/C [15]: 35.7%
viability, T/C [16]: 37.9%
viability, T/C [17]: 31%
viability, T/C [18]: 27.5%
viability, T/C [19]: 35.9%
viability, T/C [20]: 32%
viability, T/C [21]: 37.1%
viability, T/C [22]: 37.4%
viability, T/C [23]: 27.4%
viability, T/C [24]: 24.5%
viability, T/C [25]: 39.9%
viability, T/C [26]: 34.6%
viability, T/C [27]: 38.4%
viability, T/C [28]: 36.7%
viability, T/C [29]: 33.7%
viability, T/C [30]: 28.3%
viability, T/C [31]: 38.9%
viability, T/C [32]: 30.9%
viability, T/C [33]: 35.7%
viability, T/C [34]: 32.9%
viability, T/C [35]: 29.3%
viability, T/C [36]: 27.8%

O=c1[nH]cc(F)c(=O)[nH]1 + COC1C(OC(N)=O)C(O)C(Oc2ccc3c(O)c(NC(=O)c4ccc(O)c(CC=C(C)C)c4)c(=O)oc3c2C)OC1(C)C
IC50 (second compound 0.0316 µM): > 10 µM
IC50 (second compound 0.1 µM): > 10 µM
IC50 (second compound 0.316 µM): > 10 µM
IC50 (second compound 1 µM): > 10 µM
IC50 (second compound 3.16 µM): > 10 µM
IC50 (second compound 10 µM): > 10 µM
viability, T/C [1]: 103%
viability, T/C [2]: 99.7%
viability, T/C [3]: 102%
viability, T/C [4]: 98.9%
viability, T/C [5]: 82.7%
viability, T/C [6]: 78.5%
viability, T/C [7]: 109%
viability, T/C [8]: 116%
viability, T/C [9]: 99.7%
viability, T/C [10]: 82.9%
viability, T/C [11]: 82.5%
viability, T/C [12]: 79%
viability, T/C [13]: 109%
viability, T/C [14]: 105%
viability, T/C [15]: 93.5%
viability, T/C [16]: 92.1%
viability, T/C [17]: 84.8%
viability, T/C [18]: 84%
viability, T/C [19]: 107%
viability, T/C [20]: 108%
viability, T/C [21]: 93.2%
viability, T/C [22]: 90.5%
viability, T/C [23]: 72.2%
viability, T/C [24]: 80.8%
viability, T/C [25]: 98%
viability, T/C [26]: 94.1%
viability, T/C [27]: 102%
viability, T/C [28]: 89.2%
viability, T/C [29]: 81.8%
viability, T/C [30]: 82.5%
viability, T/C [31]: 103%
viability, T/C [32]: 98%
viability, T/C [33]: 99.9%
viability, T/C [34]: 79.9%
viability, T/C [35]: 77.7%
viability, T/C [36]: 81.4%
